The conditions of this series: Crystal; visual observation.

Numbers after ± are expanded uncertainties.

For the molecule `Nc1cccc(N)n1` [pyridine-2,6-diamine], the Normal melting temperature turned out to be 121.7 ± 1.2 °C. Under `Nc1ccccn1` [2-pyridinamine] stands 57.6 ± 0.6 °C.

Values taken from the NIST ThermoML archive (doi:10.1021/je8007843).
